Reference: article PMC3531252 (EJNMMI Research, 2012)

Assays:
GlyT1 [1] = assay: PET measurements using a cynomolgus monkey; type: in vivo
Method: PET measurements were performed for 123 min immediately after intravenous (i.v.) injection of radioligand at baseline and after pretreatment with SSR504734. SSR504734 was administered over 15 min, starting 30 min before the radioligand injection. PET measurements were performed on two separate days at a 6-week interval. One baseline PET measurement and one PET measurement after pretreatment with 0.1 mg/kg of SSR504734 were performed on the first day. One baseline PET measurement and two PET measurements after pretreatment with 0.5 and 1.5 mg/kg of SSR504734 were performed on the second day.
Regions of interest (ROI) for the thalamus, cerebellum, caudate, putamen, frontal cortex, temporal cortex, anterior cingulate cortex, pons, white matter, and the whole-brain contour were delineated on PET/MRI co-registered brain images for each monkey. […] PET data were analyzed using several parameters such as percent injected dose (%ID) and percent standard uptake value (%SUV), where

GlyT1 [2] = assay: PET measurements using rhesus monkeys, VT by two-tissue compartment model; type: in vivo, rhesus monkey; set-up: VT (baseline) WB / VT (baseline) THA / VT (baseline) CB / VT (baseline) CAU / VT (baseline) FC / VT (baseline) ACC / VT (baseline) TC: unit not given here; conditions: for VT (baseline) ACC / VT (baseline) CAU / VT (baseline) CB / VT (baseline) FC / VT (baseline) Pons / VT (baseline) PUT / VT (baseline) TC / VT (baseline) THA / VT (baseline) WB: 2TC
Method: PET measurements were performed using a high-resolution research tomograph (CTI/Siemens Molecular Imaging, Knoxville, TN, USA) with an in-plane resolution less than 1.5 mm FWHM in the center of the FOV [30]. PET data were acquired by list mode. The data were reconstructed with a series of frames (5 × 1 min, 5 × 3 min, 5 × 6 min, and 13 × 10 min) using the Ordinary Poisson-3D-Ordered Subset Expectation Maximization (OP03D-OSEM) algorithm with 10 iterations and 16 subsets including modeling of the points spread function. Image reconstruction was performed on a quad-core PC running a fast reconstruction algorithm.
Anesthesia was induced by intramuscular injection of ketamine hydrochloride (60 mg) and maintained by the administration of a mixture of sevoflurane, O2, and medical air after endotracheal intubation. The head was immobilized with a fixation device. Body temperature was maintained by Bair Hugger Model 505 (Arizant Healthcare, MN, USA) and monitored by an esophageal thermometer. ECG, heart rate, respiratory rate, and oxygen saturation were continuously monitored throughout the experiments. Blood pressure was monitored every 5 min.
(§1) PET measurements were performed for 123 min immediately after i.v. injection of radioligand at baseline and after pretreatment with SSR504734. SSR504734 was administered over 15 min, starting 30 min before the radioligand injection. PET measurements were performed on two separate days with two monkeys. One baseline PET measurement and one PET measurement after pretreatment with 1.5 mg/kg of SSR504734 were performed on one monkey. One baseline PET measurement and one PET measurement after pretreatment with 4.5 mg/kg were performed on the other monkey.
During each PET measurement, arterial blood was collected continuously for 3 min using an automated blood-sampling system at a speed of 3.0 mL/min (Allog AB, Molndal, Sweden). Blood samples (1.0 to 2.5 mL) were drawn at 4, 15, 30, 60, 90, and 120 min after the radioligand injection for blood and plasma radioactivity and metabolite correction.
Regions of interest (ROI) for the thalamus, cerebellum, caudate, putamen, frontal cortex, temporal cortex, anterior cingulate cortex, pons, white matter, and the whole-brain contour were delineated on PET/MRI co-registered brain images for each monkey. Co-registrations and ROI delineations were performed using PMOD 3.0 (Pixel-Wise Modeling Computer Software, PMOD Group, Zurich, Switzerland). PET data were analyzed using several parameters such as percent injected dose (%ID) and percent standard uptake value (%SUV), where
%ID=total radioactivity in the whole brain (MBq)/injected radioactivity (MBq)×100
%SUV=radioactivity (MBq/cc)/injected radioactivity (MBq)×body weight g×100.
In the PET measurements using rhesus monkeys, the total distribution volume (VT) was calculated by a two-tissue compartment model as well.

GlyT1 [3] = assay: GlyT1 occupancy and VND by Lassen plot, PET in rhesus monkeys; type: in vivo, rhesus monkey; conditions: for % of VND in VT ACC: anterior cingulate cortex; for % of VND in VT FC: frontal cortex; for % of VND in VT PUT: putamen; for % of VND in VT TC: temporal cortex
Method: as §1
GlyT1 occupancy was estimated by applying Lassen plot approach, which can determine nondisplaceable distribution volume (VND) and occupancy using VT values at baseline and after pretreatment. Seven regions (the pons, cerebellum, putamen, frontal cortex, caudate, anterior cingulate cortex, and temporal cortex) were used for the plot.

[4] = metabolite analysis of plasma by radio-HPLC during PET; type: in vivo, cynomolgus monkey
Method: During each PET measurement, venous blood samples were taken from a femoral vein for the measurement of [^11 C]
From the obtained blood samples, plasma was obtained after centrifugation at 2,000 × g for 2 to 4 min and was mixed with 1.4 times the volume of acetonitrile. The supernatant acetonitrile-plasma mixture obtained after centrifugation at 2,000 × g for 2 to 4 min was injected into the radio-HPLC system. HPLC analysis was performed on a Waters μ-Bondapak-C18 column (300 × 7.8 mm, 10 μm) by gradient elution using (a) ammonium formate (100 mM) and (b) acetonitrile at 6.0 mL/min.

[5] = baseline + blocking (1.5 mg/kg)
[6] = baseline + blocking (4.5 mg/kg)

time of whole brain peak (GlyT1 [1]; baseline, N = 2): 24 min
VT (baseline) ACC (GlyT1 [2]; rhesus monkey 1, anterior cingulate cortex): 28.6
VT (Blocking (1.5 mg/kg)) ACC (GlyT1 [2]; rhesus monkey 1, anterior cingulate cortex, after SSR504734 1.5 mg/kg): 22.5
VT (baseline) CAU (GlyT1 [2]; rhesus monkey 1, caudate): 26.2
VT (Blocking (1.5 mg/kg)) CAU (GlyT1 [2]; rhesus monkey 1, caudate, after SSR504734 1.5 mg/kg): 22.0
VT (baseline) CB (GlyT1 [2]; rhesus monkey 1, cerebellum): 23.7
VT (Blocking (1.5 mg/kg)) CB (GlyT1 [2]; rhesus monkey 1, cerebellum, after SSR504734 1.5 mg/kg): 20.4
VT (baseline) FC (GlyT1 [2]; rhesus monkey 1, frontal cortex): 25.2
VT (Blocking (1.5 mg/kg)) FC (GlyT1 [2]; rhesus monkey 1, frontal cortex, after SSR504734 1.5 mg/kg): 20.6
VT (baseline) Pons (GlyT1 [2]; rhesus monkey 1, pons): 35.2
VT (Blocking (1.5 mg/kg)) Pons (GlyT1 [2]; rhesus monkey 1, pons, after SSR504734 1.5 mg/kg): 26.8
VT (baseline) PUT (GlyT1 [2]; rhesus monkey 1, putamen): 26.7
VT (Blocking (1.5 mg/kg)) PUT (GlyT1 [2]; rhesus monkey 1, putamen, after SSR504734 1.5 mg/kg): 22.8
VT (baseline) TC (GlyT1 [2]; rhesus monkey 1, temporal cortex): 25.6
VT (Blocking (1.5 mg/kg)) TC (GlyT1 [2]; rhesus monkey 1, temporal cortex, after SSR504734 1.5 mg/kg): 21.8
VT (baseline) THA (GlyT1 [2]; rhesus monkey 1, thalamus): 31.0
VT (Blocking (1.5 mg/kg)) THA (GlyT1 [2]; rhesus monkey 1, thalamus, after SSR504734 1.5 mg/kg): 29.6
VT (baseline) WB (GlyT1 [2]; rhesus monkey 1, whole brain): 23.1
VT (Blocking (1.5 mg/kg)) WB (GlyT1 [2]; rhesus monkey 1, whole brain, after SSR504734 1.5 mg/kg): 18.6
VT (baseline) ACC (GlyT1 [2]; rhesus monkey 2, anterior cingulate cortex): 15.5
VT (Blocking (4.5 mg/kg)) ACC (GlyT1 [2]; rhesus monkey 2, anterior cingulate cortex, after SSR504734 4.5 mg/kg): 9.0
VT (baseline) CAU (GlyT1 [2]; rhesus monkey 2, caudate): 17.0
VT (Blocking (4.5 mg/kg)) CAU (GlyT1 [2]; rhesus monkey 2, caudate, after SSR504734 4.5 mg/kg): 9.2
VT (baseline) CB (GlyT1 [2]; rhesus monkey 2, cerebellum): 12.8
VT (Blocking (4.5 mg/kg)) CB (GlyT1 [2]; rhesus monkey 2, cerebellum, after SSR504734 4.5 mg/kg): 9.0
VT (baseline) FC (GlyT1 [2]; rhesus monkey 2, frontal cortex): 14.3
VT (Blocking (4.5 mg/kg)) FC (GlyT1 [2]; rhesus monkey 2, frontal cortex, after SSR504734 4.5 mg/kg): 8.6
VT (baseline) Pons (GlyT1 [2]; rhesus monkey 2, pons): 16.9
VT (Blocking (4.5 mg/kg)) Pons (GlyT1 [2]; rhesus monkey 2, pons, after SSR504734 4.5 mg/kg): 10.9
VT (baseline) PUT (GlyT1 [2]; rhesus monkey 2, putamen): 15.8
VT (Blocking (4.5 mg/kg)) PUT (GlyT1 [2]; rhesus monkey 2, putamen, after SSR504734 4.5 mg/kg): 10.1
VT (baseline) TC (GlyT1 [2]; rhesus monkey 2, temporal cortex): 12.3
VT (Blocking (4.5 mg/kg)) TC (GlyT1 [2]; rhesus monkey 2, temporal cortex, after SSR504734 4.5 mg/kg): 8.9
VT (baseline) THA (GlyT1 [2]; rhesus monkey 2, thalamus): 15.7
VT (Blocking (4.5 mg/kg)) THA (GlyT1 [2]; rhesus monkey 2, thalamus, after SSR504734 4.5 mg/kg): 11.9
VT (baseline) WB (GlyT1 [2]; rhesus monkey 2, whole brain): 12.6
VT (Blocking (4.5 mg/kg)) WB (GlyT1 [2]; rhesus monkey 2, whole brain, after SSR504734 4.5 mg/kg): 8.5
VND (GlyT1 [3]; baseline + blocking 1.5 mg/kg SSR504734, rhesus monkey 1, one value for all regions): 16.5
VND (GlyT1 [3]; baseline + blocking 4.5 mg/kg SSR504734, rhesus monkey 2, one value for all regions): 7.5
% of VND in VT ACC (GlyT1 [3]; [5]): 59%
% of VND in VT CAU (GlyT1 [3]; baseline + blocking (1.5 mg/kg), caudate): 55%
% of VND in VT CB (GlyT1 [3]; baseline + blocking (1.5 mg/kg), cerebellum): 50%
% of VND in VT FC (GlyT1 [3]; [5]): 52%
% of VND in VT Pons (GlyT1 [3]; baseline + blocking (1.5 mg/kg), pons): 66%
% of VND in VT PUT (GlyT1 [3]; [5]): 55%
% of VND in VT TC (GlyT1 [3]; [5]): 54%
% of VND in VT ACC (GlyT1 [3]; [6]): 52%
% of VND in VT FC (GlyT1 [3]; [6]): 48%
% of VND in VT PUT (GlyT1 [3]; [6]): 53%
% of VND in VT TC (GlyT1 [3]; [6]): 39%
metabolites detected in the plasma ([4]; radiochromatograms, 4 and 90 min): more hydrophilic metabolites
fraction metabolized in plasma ([4]; within 90 min after injection): over 70%
SMILES: [11CH3]N1CCCCC1[C@@H](NC(=O)c1cccc(C(F)(F)F)c1Cl)c1ccccc1 (stereo partly drawn) [[^11 C]N-methyl-SSR504734, 2-chloro N-[(S)-{(S)-1-[^11 C]methylpiperidin-2-yl} (phenyl)methyl] 3-trifluoromethyl-benzamide]
rank order of regional brain uptake (GlyT1 [1]; baseline): thalamus > pons > cerebellum ≒ putamen > cortical regions > white matter
radioactivity level in brain after pretreatment with SSR504734 (GlyT1 [1]; pretreatment 0.1 to 1.5 mg/kg SSR504734, dose-dependent): increased in all regions
rank order of regional brain uptake (GlyT1 [2]; baseline): thalamus > pons > putamen > frontal cortex≒temporal cortex > cerebellum> > white matter
uptake in the brain regions after pretreatment with SSR504734 (GlyT1 [2]; pretreatment 1.5 and 4.5 mg/kg SSR504734): increase
% decrease of VT ACC (GlyT1 [2]; rhesus monkey 1, anterior cingulate cortex, baseline to blocking with SSR504734 1.5 mg/kg): 21.3%
% decrease of VT CAU (GlyT1 [2]; rhesus monkey 1, caudate, baseline to blocking with SSR504734 1.5 mg/kg): 16.0%
% decrease of VT CB (GlyT1 [2]; rhesus monkey 1, cerebellum, baseline to blocking with SSR504734 1.5 mg/kg): 13.9%
% decrease of VT FC (GlyT1 [2]; rhesus monkey 1, frontal cortex, baseline to blocking with SSR504734 1.5 mg/kg): 18.3%
% decrease of VT Pons (GlyT1 [2]; rhesus monkey 1, pons, baseline to blocking with SSR504734 1.5 mg/kg): 23.9%
% decrease of VT PUT (GlyT1 [2]; rhesus monkey 1, putamen, baseline to blocking with SSR504734 1.5 mg/kg): 14.6%
% decrease of VT TC (GlyT1 [2]; rhesus monkey 1, temporal cortex, baseline to blocking with SSR504734 1.5 mg/kg): 14.8%
% decrease of VT THA (GlyT1 [2]; rhesus monkey 1, thalamus, baseline to blocking with SSR504734 1.5 mg/kg): 4.5%
% decrease of VT ACC (GlyT1 [2]; rhesus monkey 2, anterior cingulate cortex, baseline to blocking with SSR504734 4.5 mg/kg): 41.9%
% decrease of VT CAU (GlyT1 [2]; rhesus monkey 2, caudate, baseline to blocking with SSR504734 4.5 mg/kg): 45.9%
% decrease of VT CB (GlyT1 [2]; rhesus monkey 2, cerebellum, baseline to blocking with SSR504734 4.5 mg/kg): 29.7%
% decrease of VT FC (GlyT1 [2]; rhesus monkey 2, frontal cortex, baseline to blocking with SSR504734 4.5 mg/kg): 39.9%
% decrease of VT Pons (GlyT1 [2]; rhesus monkey 2, pons, baseline to blocking with SSR504734 4.5 mg/kg): 35.5%
% decrease of VT PUT (GlyT1 [2]; rhesus monkey 2, putamen, baseline to blocking with SSR504734 4.5 mg/kg): 36.1%
% decrease of VT TC (GlyT1 [2]; rhesus monkey 2, temporal cortex, baseline to blocking with SSR504734 4.5 mg/kg): 27.6%
% decrease of VT THA (GlyT1 [2]; rhesus monkey 2, thalamus, baseline to blocking with SSR504734 4.5 mg/kg): 24.2%
% decrease of VT WB (GlyT1 [2]; rhesus monkey 2, whole brain, baseline to blocking with SSR504734 4.5 mg/kg): 32.5%
